Data reported in the supplement of paper PMC10307832.

Experiments:
Test in all cases: relative viability (nuclei count vs DMSO), 5 days (fraction); higher = more cells survive
[1] = compound: Cc1ccc(Nc2nccc(N(C)c3ccc4c(C)n(C)nc4c3)n2)cc1S(N)(=O)=O [Pazopanib] + C[C@@H](Oc1cc(-c2cnn(C3CCNCC3)c2)cnc1N)c1c(Cl)ccc(F)c1Cl [Crizotinib] (partner 1 µM)
How it was run: (§1)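 Lung cancer cell lines, seeded in 1536-well plates, were treated the following day by pin tool with a single drug or with five library-drug doses (not always all listed) in √10 steps on top of a fixed anchor-drug dose. Cells were fixed and nuclei stained in one step after 5 days, and nuclei were counted. Relative viability is the nuclei count for treated wells divided by that for vehicle wells, reported as medians of duplicate plates.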

[2] = compound: Cc1ccc(C(=O)Nc2ccc(CN3CCN(C)CC3)c(C(F)(F)F)c2)cc1C#Cc1cnc2cccnn12 [Ponatinib] + CC(=O)c1c(C)c2cnc(Nc3ccc(N4CCNCC4)cn3)nc2n(C2CCCC2)c1=O [Palbociclib] (partner 0.5 µM)
How it was run: as §1

[3] = compound: Cc1ccc(Nc2nccc(N(C)c3ccc4c(C)n(C)nc4c3)n2)cc1S(N)(=O)=O [Pazopanib] + Nc1ncn([C@H]2C[C@H](O)[C@@H](CO)O2)c(=O)n1 [Decitabine] (partner 2 µM)
How it was run: as §1

[4] = compound: Cc1ccc(C(=O)Nc2ccc(CN3CCN(C)CC3)c(C(F)(F)F)c2)cc1C#Cc1cnc2cccnn12 [Ponatinib] + NC(=O)Nc1cc(-c2cccc(F)c2)sc1C(=O)N[C@H]1CCCNC1 [AZD7762] (partner 0.2 µM)
How it was run: as §1

| Cell Line | relative viability ([1]; first compound 0.01 µM) | relative viability ([1]; first compound 0.03162 µM) | relative viability ([1]; first compound 0.1 µM) | relative viability ([1]; first compound 0.3162 µM) | relative viability ([1]; first compound 1 µM) | relative viability ([2]; first compound 0.002 µM) | relative viability ([2]; first compound 0.006325 µM) | relative viability ([2]; first compound 0.06325 µM) | relative viability ([2]; first compound 0.2 µM) | relative viability ([3]; first compound 0.01 µM) | relative viability ([3]; first compound 0.03162 µM) | relative viability ([3]; first compound 0.1 µM) | relative viability ([3]; first compound 0.3162 µM) | relative viability ([3]; first compound 1 µM) | relative viability ([4]; first compound 0.002 µM) | relative viability ([4]; first compound 0.006325 µM) | relative viability ([4]; first compound 0.06325 µM) | relative viability ([4]; first compound 0.2 µM) |
| --- | --- | --- | --- | --- | --- | --- | --- | --- | --- | --- | --- | --- | --- | --- | --- | --- | --- | --- |
| PC-14 | 0.95 | 0.893 | 0.968 | 0.891 | 0.935 | 0.464 | 0.533 | 0.73 | 0.584 | 0.186 | 0.221 | 0.245 | 0.226 | 0.305 | 0.218 | 0.305 | 0.396 | 0.458 |
| HARA | 1.1 | 1.04 | 1.22 | 1.05 | 1.1 | 0.246 | 0.332 | 0.228 | 0.246 | 0.484 | 0.615 | 0.6 | 0.543 | 0.602 | 0.382 | 0.351 | 0.31 | 0.356 |
| NCI-H2087 | 0.952 | 0.76 | 1.01 | 0.812 | 0.701 | 0.259 | 0.25 | 0.259 | 0.329 | 0.186 | 0.321 | 0.264 | 0.252 | 0.424 | 1.05 | 1.07 | 1.43 | 1.19 |
| NCI-H1437 | 0.936 | 0.935 | 0.953 | 0.807 | 1.05 | 0.285 | 0.318 | 0.316 | 0.332 | 0.541 | 0.611 | 0.626 | 0.602 | 0.567 | 1.02 | 1.07 | 1.17 | 1.03 |
| NCI-H1792 |  | 0.927 | 0.967 | 0.912 | 0.952 | 0.605 | 0.66 | 0.655 | 0.62 |  | 0.549 | 0.456 | 0.621 | 0.524 | 0.708 | 0.478 | 0.55 | 0.407 |
| ChaGo-K-1 | 1.18 | 1.19 | 0.997 | 1.23 | 1.06 | 0.887 | 0.964 | 0.936 | 0.856 | 0.541 | 0.482 | 0.516 | 0.528 | 0.535 | 0.763 | 0.857 | 0.847 | 0.819 |
| LK-2 | 0.224 | 0.239 | 0.213 | 0.21 | 0.235 | 0.643 | 0.744 | 0.768 | 0.757 | 0.228 | 0.318 | 0.324 | 0.243 | 0.277 | 0.405 | 0.431 | 0.146 | 0.231 |
| 201T | 1.05 | 1.07 | 1.03 | 1.06 | 1.06 | 0.367 | 0.359 | 0.351 | 0.328 | 0.831 | 0.886 | 0.866 | 0.879 | 0.838 | 0.557 | 0.546 | 0.38 | 0.371 |
| HCC-44 | 0.839 | 0.779 | 0.86 | 0.795 | 0.823 | 0.891 | 0.981 | 0.932 | 0.852 | 0.913 | 0.949 | 0.941 | 0.984 | 1 | 0.992 | 1.02 | 1.02 | 0.997 |
| NCI-H647 | 1 | 1.22 | 1.26 | 1.01 | 1.06 | 0.358 | 0.345 | 0.47 | 0.438 | 0.402 | 0.408 | 0.344 | 0.487 | 0.295 | 0.294 | 0.381 | 0.482 | 0.335 |
| H3255 | 0.828 | 0.882 | 0.853 | 0.945 | 0.995 | 0.325 | 0.312 | 0.297 | 0.297 | 0.42 | 0.618 | 0.602 | 0.718 | 0.668 | 0.817 | 0.858 | 1.05 | 0.95 |
| NCI-H650 | 0.755 | 0.907 | 0.608 | 0.784 | 0.603 | 0.313 | 0.321 | 0.295 | 0.314 | 0.303 | 0.299 | 0.353 | 0.293 | 0.353 | 0.695 | 0.92 | 0.981 | 0.572 |
| NCI-H23 | 0.594 | 0.474 | 0.577 | 0.735 | 0.591 | 0.521 | 0.495 | 0.683 | 0.509 | 0.308 | 0.309 | 0.341 | 0.376 | 0.335 | 0.266 | 0.244 | 0.237 | 0.14 |
| NCI-H2170 | 1.21 | 1.32 | 1.26 | 1.15 | 1.14 | 0.361 | 0.431 | 0.362 | 0.377 | 0.47 | 0.467 | 0.453 | 0.449 | 0.428 | 0.799 | 0.927 | 0.789 | 0.833 |
| NCI-H1944 | 1.13 | 1.11 | 1.05 | 1.04 | 1.05 | 0.331 | 0.392 | 0.435 | 0.338 | 0.463 | 0.424 | 0.424 | 0.427 | 0.467 | 0.454 | 0.489 | 0.543 | 0.664 |
| EKVX | 0.841 | 1.07 | 0.898 | 0.916 | 0.891 | 0.382 | 0.419 | 0.458 | 0.438 | 0.374 | 0.303 | 0.324 | 0.356 | 0.472 | 0.7 | 0.766 | 0.673 | 0.606 |
| EPLC-272H | 0.771 | 1.11 | 1.07 | 0.885 | 1.03 | 0.292 | 0.34 | 0.376 | 0.332 |  | 0.336 | 0.353 | 0.337 | 0.369 | 0.242 | 0.175 | 0.204 | 0.234 |
